Results from publication PMC6493276, “Quantification of 1D, a novel derivative of curcumin with potential antitumor activity, in rat plasma by liquid chromatography-tandem mass spectrometry: application to a pharmacokinetic study in rats” (Pharmaceutical Biology, 2019).

Experiments:
[1] = Pharmacokinetic study in rats after single intravenous administration; type: in vivo; conditions: male, Sprague-Dawley, rat, plasma
Method: The applicability of the developed bioanalytical LC-MS/MS method was evaluated by quantitative determination of 1 D in rat plasma after single intravenous administration. All experimental procedures and animal care were performed following approval from the Ethic Committee of Laboratory Animals of the Affiliated Hospital of Qingdao University. Six male Sprague–Dawley rats, weighing 200 ± 15 g, were obtained from Beijing Vital River Experimental Animal Co. Ltd (Beijing, China). The animals were quarantined for 1 week prior to the study and were maintained on a 12 h light/12 h dark cycle at 22 ± 2 °C and at 50 ± 10% relative humidity. The rodents were given a commercial rat chow and water ad libitum. An intravenous dose of 5 mg/kg was selected based on our previous toxicological and pharmacodynamic studies in rats (unpublished data). The administration solution was prepared by dissolving 1 D in PEG400: PG400: DMSO: saline (30: 30: 1: 39, v/v/v/v) to give a concentration of 2 mg/mL. After fasting overnight, rats were given the prepared administration solution at 5 mg/kg via the tail vein. Blood samples (0.2 mL) were collected into heparinized tubes by retro-orbital puncture at 0 (pre-dose), 5, 10, 20, 30, and 45 min, and 1, 1.5, 2, 4, 8, 12, and 24 h after dosing. Plasma was separated by centrifugation at 4500 rpm for 10 min and stored at −20 °C until analysis. The pharmacokinetic parameters including area under the concentration-time curve (AUC), apparent volume of distribution (Vz), elimination half-life (t1/2), and clearance (CLz) were calculated by a non-compartmental analysis method using the DAS 3.0.2 pharmacokinetic programme. As observable parameters, the maximum plasma concentration (Cmax) and the time to reach the maximum concentration (Tmax) were obtained directly.

[2] = Stability of 1 D in rat plasma under various storage conditions; type: in vitro ADME; conditions: for Accuracy / Measured concentration (mean ± SD): n = 5
Method: The stability of 1 D in rat plasma was evaluated in five replicates at three QC levels under various storage conditions. […] Short-term and long-term stability were evaluated by storing plasma samples at room temperature for 6 h and −20 °C for 1 month before sample preparation. Freeze-thaw stability of QC samples was assessed after three freeze-thaw cycles (−20 to 25 °C). Autosampler stability was evaluated by keeping the extracted plasma samples in the autosampler for 24 h before analysis. Samples were considered to be stable if assay values were within the acceptable limits of accuracy (±15%) and precision (15% RSD).

HT29 cells = system: HT29 cells; parameters: method as in Tong et al. [2016]; conditions: treatment for 48 h, ref Tong et al. [2016]; cited from earlier work
HCT116 cells = system: HCT116 cells; parameters: method as in Tong et al. [2016]; conditions: treatment for 48 h, ref Tong et al. [2016]; cited from earlier work
HJ1299 cells = system: HJ1299 cells; parameters: method as in Tong et al. [2016]; conditions: treatment for 48 h, ref Tong et al. [2016]; cited from earlier work
A549 cells = system: A549 cells; parameters: method as in Tong et al. [2016]; conditions: treatment for 48 h, ref Tong et al. [2016]; cited from earlier work
[3] = single intravenous 5 mg/kg, n = 6
[4] = extracted rat plasma, spiked 10 ng/mL, autosampler for 24 h
[5] = extracted rat plasma, spiked 100 ng/mL, autosampler for 24 h
[6] = extracted rat plasma, spiked 500 ng/mL, autosampler for 24 h
[7] = rat plasma, spiked 10 ng/mL, 4 weeks at −20 °C
[8] = rat plasma, spiked 10 ng/mL, 6 h at 25 °C
[9] = rat plasma, spiked 10 ng/mL, three freeze-thaw cycles
[10] = rat plasma, spiked 100 ng/mL, 4 weeks at −20 °C
[11] = rat plasma, spiked 100 ng/mL, 6 h at 25 °C
[12] = rat plasma, spiked 100 ng/mL, three freeze-thaw cycles
[13] = rat plasma, spiked 500 ng/mL, 4 weeks at −20 °C
[14] = rat plasma, spiked 500 ng/mL, 6 h at 25 °C
[15] = rat plasma, spiked 500 ng/mL, three freeze-thaw cycles

Br.COc1ccc(/C=C/c2cc(/C=C/c3ccc(OC)cc3)nc(OCCCCSC(=N)N)n2)cc1 [1 D, (E,E)-4-(4,6-bis(4-methoxystyryl)pyrimidin-2-yloxy)butyl carbamimidothioate hydrobromide]
AUC(0-t) ([1]; 5 mg/kg, intravenous administration, non-compartmental (abstract)): 807 ng·h/mL | Cmax [1, 3]: 610 ng/mL | Tmax [1, 3]: 4.8 min | AUC(0-inf) ([1]; single intravenous 5 mg/kg, n = 6, non-compartmental): 853 ng·h/mL | clearance ([1]; single intravenous 5 mg/kg, n = 6, read-out: CLz (clearance) (converted)): 106 mL/min/kg | MRT last ([1]; single intravenous 5 mg/kg, n = 6, read-out: MRT(0−t)): 3.4 h | MRT inf ([1]; single intravenous 5 mg/kg, n = 6, read-out: MRT(0−∞)): 4.7 h | Vd ([1]; single intravenous 5 mg/kg, n = 6, read-out: Vz (apparent volume of distribution)): 46.6 L/kg | half-life ([1]; single intravenous 5 mg/kg, n = 6, read-out: t1/2 (elimination half-life) (converted)): 4.92 h | Accuracy [2, 4]: 103.6% | Measured concentration (mean ± SD) [2, 4]: 10.36 ± 0.75 ng/mL | Accuracy [2, 5]: 101.5% | Measured concentration (mean ± SD) [2, 5]: 101.51 ± 6.43 ng/mL | Accuracy [2, 6]: 96.2% | Measured concentration (mean ± SD) [2, 6]: 481.19 ± 42.98 ng/mL | Accuracy [2, 7]: 106.1% | Measured concentration (mean ± SD) [2, 7]: 10.61 ± 0.55 ng/mL | Accuracy [2, 8]: 102.7% | Measured concentration (mean ± SD) [2, 8]: 10.27 ± 0.56 ng/mL | Accuracy [2, 9]: 101.2% | Measured concentration (mean ± SD) [2, 9]: 10.12 ± 0.66 ng/mL | Accuracy [2, 10]: 98.4% | Measured concentration (mean ± SD) [2, 10]: 98.39 ± 7.52 ng/mL | Accuracy [2, 11]: 104.7% | Measured concentration (mean ± SD) [2, 11]: 104.71 ± 5.16 ng/mL | Accuracy [2, 12]: 99.4% | Measured concentration (mean ± SD) [2, 12]: 99.36 ± 6.92 ng/mL | Accuracy [2, 13]: 103.7% | Measured concentration (mean ± SD) [2, 13]: 518.57 ± 43.30 ng/mL | Accuracy [2, 14]: 106.1% | Measured concentration (mean ± SD) [2, 14]: 530.28 ± 34.32 ng/mL | Accuracy [2, 15]: 100.8% | Measured concentration (mean ± SD) [2, 15]: 503.88 ± 33.79 ng/mL | Changes in concentrations after storage (stability in rat plasma) ([2]; room temperature 6 h, −20 °C 1 month, autosampler 24 h, three freeze-thaw cycles): No significant changes | IC50 (HT29 cells): 790 nM | IC50 (HCT116 cells): 1000 nM | IC50 (HJ1299 cells): 920 nM | IC50 (A549 cells): 990 nM
